According to patent US4208520A, “7-(Substituted)-7H-pyrrolo[3,2-f]quinazoline-1,3-diamines” (American Home Products Corporation, priority 1978, dated 1980):
≈ marks a conversion by molar mass, not a printed value. Like-named read-outs stand apart in the source and are kept apart here.

Tests used:
K. pneumoniae 10031 = experiment: In vitro antibacterial activity (minimal inhibitory concentration, agar dilution); format: cell-based
Method: (§1) The compounds have shown activity in vitro against one or more of the following strains of bacteria: S. aureus Smith, S. aureus 53-180, N. catarrhalis 8193, E. coli 9637, S. paratyphi 11737, K. pneumoniae 10031, or P. vulgaris 6896.
(§2) A stock solution or suspension of the test compound at a concentration of 2500 μg/ml. is prepared utilizing a suitable solvent or medium such as aqueous sodium hydroxide, aqueous lactic acid, methyl cellosolve, dimethylsulfoxide, dimethylacetamide, ethylene glycol, dimethylformamide, formamide, propylene glycol, acetone or methanol. Two-fold dilutions are made by adding appropriate amounts of sterile water to the solution or suspension of the test substance. One ml. quantities of each dilution are incorporated into Wellcotest Sensitivity Test Agar fortified with 5% hemolyzed horse blood (9 ml. vol.) in sterile Petri dishes to give plates containing varying concentrations of the test compound. The hardened surfaces of each plate are incubated with the test organism, and the plates are incubated for 18 hours at 35° C.

S. aureus 53-180 = experiment: as above; format: cell-based
Method: as §1, §2

S. aureus Smith = experiment: as above; format: cell-based; details: Staphylococcus aureus
Method: as §1, §2

N. catarrhalis 8193 = experiment: as above; format: cell-based; details: Wellcotest Sensitivity Test Agar with 5% hemolyzed horse blood, 18 hours at 35° C.
Method: as §1, §2

E. coli 9637 = experiment: as above; format: cell-based
Method: as §1, §2

S. paratyphi 11737 = experiment: as above; format: cell-based; details: Salmonella enterica, Wellcotest Sensitivity Test Agar with 5% hemolyzed horse blood, 18 hours at 35° C.
Method: as §1, §2

P. vulgaris 6896 = experiment: as above; format: cell-based
Method: as §1, §2

Escherichia coli (E-3) = experiment: In vivo antibacterial synergism with sulfomethoxazole (mouse protection test); details: E. coli (E-3), CD-1 mice; for ED50: Escherichia coli, po, single dose, alone, treated immediately after infecting, read-out: PD50
Method: (§3) The test agent is weighed, suspended in 0.5% aqueous carboxymethyl cellulose, hemogenized (glass tissue grinder) and diluted according to the design of the experiment. Mice (male, 18±1 g., CD-1 strain) are pre-weighed, pooled, infected at random intraperitoneally with a 0.5 ml. standardized suspension (LD95 ±5%) of the bacterial organism in 5% gastric mucin and treated at random with single doses of the test agents either at the time of infection or six hours after infecting. The treated groups consist of ten mice per dosage level. Deaths are recorded daily for 14 days and the PD50 (mice are treated at time of infection) and CD50 (mice are treated six hours after infecting) values are calculated by the method of Reed and Muench [Amer. J. Hyg., 27, (1938)].

Escherichia coli (E-2) = experiment: as above; details: E. coli (E-2), CD-1 mice; for ED50: Escherichia coli, po, single dose, alone, treated immediately after infecting, read-out: PD50
Method: as §3

[1] = system: Staphylococcus aureus CHP; experiment: as above; details: CD-1 mice; for ED50: po, single dose, alone, treated immediately after infecting, read-out: PD50
Method: as §3

bacterial infections = experiment: Potentiation of sulfa drug against bacterial infections in mice, oral; format: in vivo, mouse; details: oral route of administration in mice
Method: The invention also provides compounds which will potentiate the antibacterial effects of sulfa drugs.
as §3

[2] = Klebsiella pneumoniae, 10031, 18 h
[3] = Staphylococcus aureus, 53180, 18 h
[4] = Escherichia coli, E. coli 9637, Wellcotest Sensitivity Test Agar with 5% hemolyzed horse blood, 18 hours at 35° C., read-out: MIC
[5] = Klebsiella pneumoniae, K. pneumoniae 10031, Wellcotest Sensitivity Test Agar with 5% hemolyzed horse blood, 18 hours at 35° C., read-out: MIC
[6] = Staphylococcus aureus, 53180, S. aureus 53-180, Wellcotest Sensitivity Test Agar with 5% hemolyzed horse blood, 18 hours at 35° C., read-out: MIC
[7] = S. aureus Smith, Wellcotest Sensitivity Test Agar with 5% hemolyzed horse blood, 18 hours at 35° C., read-out: MIC
[8] = Proteus vulgaris, P. vulgaris 6896, Wellcotest Sensitivity Test Agar with 5% hemolyzed horse blood, 18 hours at 35° C., read-out: MIC
[9] = p.o., Cpd. dose in combination with SM
[10] = p.o., SM dose in combination with Cpd.

SMILES	MIC (S. aureus 53-180; [3]) [µg/mL]	MIC (S. aureus Smith; 18 h) [µg/mL]	MIC (N. catarrhalis 8193) [µg/mL]	MIC (E. coli 9637; [4]) [µg/mL]	MIC (S. paratyphi 11737) [µg/mL]	MIC (K. pneumoniae 10031; [5]) [µg/mL]	MIC (S. aureus 53-180; [6]) [µg/mL]	MIC (S. aureus Smith; [7]) [µg/mL]	MIC (P. vulgaris 6896; [8]) [µg/mL]	other results
Nc1nc(N)c2c(ccc3c2ccn3Cc2ccc(Cl)cc2Cl)n1 [Example 2, 7-[(2,4-Dichlorophenyl)methyl]-7H-pyrrolo[3,2-f]quinazoline-1,3-diamine]	0.488 (≈ 1.36 µM)	0.976 (≈ 2.72 µM)	0.0038 (≈ 0.0106 µM)	3.9 (≈ 10.9 µM)	31.3 (≈ 87.4 µM)					MIC (K. pneumoniae 10031; [2]): 0.488 µg/mL (≈ 1.36 µM)
CC(=O)c1cccc(Cn2ccc3c4c(N)nc(N)nc4ccc32)c1 [Example 3]				0.244 (≈ 0.736 µM)	0.976 (≈ 2.95 µM)	0.031 (≈ 0.0935 µM)	0.061 (≈ 0.184 µM)	0.122 (≈ 0.368 µM)	3.9 (≈ 11.8 µM)	
COC(=O)c1cccc(Cn2ccc3c4c(N)nc(N)nc4ccc32)c1 [Example 4]		0.976 (≈ 2.81 µM)		1.95 (≈ 5.61 µM)	31.3 (≈ 90.1 µM)	0.244 (≈ 0.702 µM)	0.122 (≈ 0.351 µM)		125 (≈ 360 µM)	
CC(C)OC(=O)c1ccc(Cn2ccc3c4c(N)nc(N)nc4ccc32)cc1 [Example 6]	0.488 (≈ 1.3 µM)	0.488 (≈ 1.3 µM)	0.122 (≈ 0.325 µM)	15.6 (≈ 41.6 µM)	62.5 (≈ 166 µM)				125 (≈ 333 µM)	MIC (K. pneumoniae 10031; [2]): 0.488 µg/mL (≈ 1.3 µM)
CCCC(C)OC(=O)c1ccc(Cn2ccc3c4c(N)nc(N)nc4ccc32)cc1 (stereo not drawn) [Example 7]			7.81 (≈ 19.4 µM)			15.6 (≈ 38.7 µM)	7.81 (≈ 19.4 µM)	15.6 (≈ 38.7 µM)		
COC(=O)c1ccc(Cn2ccc3c4c(N)nc(N)nc4ccc32)cc1 [Example 8]	7.81 (≈ 22.5 µM)	31.3 (≈ 90.1 µM)			250 (≈ 720 µM)	15.6 (≈ 44.9 µM)				MIC (E. coli 9637; Escherichia coli, 9637, 18 h): 62.5 µg/mL (≈ 180 µM); MIC (P. vulgaris 6896; Proteus vulgaris, 6896, 18 h): 250 µg/mL (≈ 720 µM)
Nc1nc(N)c2c(ccc3c2ccn3Cc2ccc(O)cc2)n1 [Example 9, 7-[(4-Hydroxyphenyl)methyl]-7H-pyrrolo[3,2-f]quinazoline-1,3-diamine]	0.488 (≈ 1.6 µM)	0.488 (≈ 1.6 µM)			3.9 (≈ 12.8 µM)	0.244 (≈ 0.799 µM)				MIC (E. coli 9637; Escherichia coli, 9637, 18 h): 0.976 µg/mL (≈ 3.2 µM); MIC (P. vulgaris 6896; Proteus vulgaris, 6896, 18 h): 250 µg/mL (≈ 819 µM)
Nc1nc(N)c2c(ccc3c2ccn3-c2ccncc2)n1 [Example 10, 7-(4-Pyridinyl)-7H-pyrrolo-[3,2-f]quinazoline-1,3-diamine]			0.0152 (≈ 0.055 µM)	0.244 (≈ 0.883 µM)	0.976 (≈ 3.53 µM)		0.224 (≈ 0.811 µM)	0.448 (≈ 1.62 µM)		MIC (K. pneumoniae 10031; [2]): 0.976 µg/mL (≈ 3.53 µM); MIC (P. vulgaris 6896; Proteus vulgaris, 6896, 18 h): 62.5 µg/mL (≈ 226 µM); ED50 (Escherichia coli (E-3)): 313 mg/kg; PD50 of Cpd. in combination SM/Cpd. (Escherichia coli (E-3); [9]): 6.25 mg. per kg.; ED50 (Escherichia coli (E-2)): > 400 mg/kg; PD50 of Cpd. in combination SM/Cpd. (Escherichia coli (E-2); [9]): 1.20 mg. per kg.; PD50 of Cpd. in combination SM/Cpd. [1, 9]: 7.28 mg. per kg.; ED50 [1]: > 400 mg/kg; synergistic effect with sulfamethoxazole against bacterial infections (bacterial infections): gave a synergistic effect with sulfamethoxazole against bacterial infections
Cc1ccnc(-n2ccc3c4c(N)nc(N)nc4ccc32)c1 [Example 11]	0.976 (≈ 3.36 µM)	3.9 (≈ 13.4 µM)	0.0152 (≈ 0.0524 µM)	3.9 (≈ 13.4 µM)	7.81 (≈ 26.9 µM)	0.244 (≈ 0.84 µM)			15.6 (≈ 53.7 µM)	
Nc1nc(N)c2c(ccc3c2ccn3-c2ccc(C(F)(F)F)cc2)n1 [Example 12]	31.3 (≈ 91.2 µM)	31.3 (≈ 91.2 µM)				3.9 (≈ 11.4 µM)				MIC (E. coli 9637; Escherichia coli, 9637, 18 h): 250 µg/mL (≈ 728 µM)
NC(=O)c1ccc(-n2ccc3c4c(N)nc(N)nc4ccc32)cc1 [Example 13]	7.81 (≈ 24.5 µM)					0.976 (≈ 3.07 µM)		1.95 (≈ 6.13 µM)		
Cc1cc(NS(=O)(=O)c2ccc(N)cc2)no1 [SM, sulfomethoxazole, reference compound]										ED50 (Escherichia coli (E-3)): 28.1 mg/kg; PD50 of SM in combination SM/Cpd. (Escherichia coli (E-3); [10]): 12.5 mg. per kg.; ED50 (Escherichia coli (E-2)): 25 mg/kg; PD50 of SM in combination SM/Cpd. (Escherichia coli (E-2); [10]): 5.25 mg. per kg.; PD50 of SM in combination SM/Cpd. [1, 10]: 50 mg. per kg.; ED50 [1]: 259 mg/kg
